Experiments:
Nephotettix cincticeps = experiment: Insecticidal activity against 1 to 3 day-old adult Nephotettix cincticeps (green rice leafhopper) infested in compound-treated rice seedlings assessed as mortality measured after 3 days; format: functional
Laodelphax striatellus = experiment: Insecticidal activity against 1 to 3 day-old adult Laodelphax striatella (small brown planthopper) infested compound-treated rice seedlings assessed as mortality measured after 3 days; format: functional

SMILES	LC70 (Nephotettix cincticeps)	LC70 (Laodelphax striatellus)
CN/C(=C\[N+](=O)[O-])NCC1CCOC1 (configuration not stated)	0.1 ppm	0.1 ppm
CN/C(=N\[N+](=O)[O-])NCC1CCOC1C (configuration not stated)	>1000 ppm	>1000 ppm
CN/C(=N\[N+](=O)[O-])NCC1(C)CCOC1 (configuration not stated)	>1000 ppm	>1000 ppm
O=[N+]([O-])/C=C1\NCCCN1CC1CCOC1 (configuration not stated)	0.1 ppm	1 ppm
O=[N+]([O-])/N=C1\NCCCN1CC1CCOC1 (configuration not stated)	0.1 ppm	1 ppm
CC1(C)CC(CN2CCCN/C2=N\[N+](=O)[O-])CO1 (configuration not stated)	1 ppm	10 ppm
CN/C(=N\[N+](=O)[O-])NCC1COC(C)(C)C1 (configuration not stated)	1 ppm	100 ppm
CN/C(=C\[N+](=O)[O-])NCC1COC(C)(C)C1 (configuration not stated)	1 ppm	10 ppm
CC1(C)CC(CN2CCCN/C2=C\[N+](=O)[O-])CO1 (configuration not stated)	1 ppm	1 ppm
CN/C(=N\[N+](=O)[O-])NCC1COC(C)C1 (mixture of isomers)	1 ppm	10 ppm
CCC1COCC1CN/C(=N/[N+](=O)[O-])NC (mixture of isomers)	100 ppm	>1000 ppm
CN/C(=N\[N+](=O)[O-])NCC1COCC1C (mixture of isomers)	1 ppm	10 ppm
CCC1COCC1CN/C(=C/[N+](=O)[O-])NC (mixture of isomers)	100 ppm	>1000 ppm
CC1COCC1CN1CCCN/C1=N\[N+](=O)[O-] (mixture of isomers)	0.1 ppm	10 ppm
CC1CC(CN2CCCN/C2=N\[N+](=O)[O-])CO1 (mixture of isomers)	0.1 ppm	1 ppm
CN/C(=N\[N+](=O)[O-])NCC1CCOC1OC (mixture of isomers)	>1000 ppm	>1000 ppm
CN/C(=N\[N+](=O)[O-])NCC1(C)COCC1C (mixture of isomers)	>1000 ppm	>1000 ppm
CN/C(=N\[N+](=O)[O-])NCC1COC(c2ccccc2)C1 (mixture of isomers)	>1000 ppm	>1000 ppm
CN/C(=C\[N+](=O)[O-])NCC1CCOC1C (mixture of isomers)	>1000 ppm	>1000 ppm
CN/C(=C\[N+](=O)[O-])NCC1CCOC1OC (mixture of isomers)	>1000 ppm	>1000 ppm
CN/C(=C\[N+](=O)[O-])NCC1COCC1C (mixture of isomers)	1 ppm	1 ppm
CN/C(=C\[N+](=O)[O-])NCC1COC(C)C1 (mixture of isomers)	1 ppm	10 ppm
CC1COCC1CN1CCCN/C1=C\[N+](=O)[O-] (mixture of isomers)	0.1 ppm	1 ppm
CCC1COCC1CN1CCCN/C1=C\[N+](=O)[O-] (mixture of isomers)	>1000 ppm	100 ppm
CC1CC(CN2CCCN/C2=C\[N+](=O)[O-])CO1 (mixture of isomers)	1 ppm	1 ppm
CN/C(=N/CC1CCOC1)N[N+](=O)[O-] (configuration not stated) [DINOTEFURAN]	0.1 ppm	0.1 ppm

From ChEMBL document CHEMBL3044941, “Synthesis and Structure-Activity Relationships of Dinotefuran Derivatives: Modification in the Tetrahydro-3-furylmethyl Part” (2004)
